Data from ChEMBL document CHEMBL4359822, “Design, synthesis of 4,5-diazafluorene derivatives and their anticancer activity via targeting telomeric DNA G-quadruplex” (Eur J Med Chem, 2019).
The source made the active and inactive calls. The calls are words filed in the database; no cut-off is given here.

Assays:
A549 [1] = assay: Antiproliferative activity against human A549 cells incubated for 36 hrs by CCK8 assay; assay type: functional, cell-based; details: A549, 36 h
AGS [2] = assay: Antiproliferative activity against human AGS cells incubated for 36 hrs by CCK8 assay; assay type: functional, cell-based
HepG2 [3] = assay: Antiproliferative activity against human HepG2 cells incubated for 36 hrs by CCK8 assay; assay type: functional, cell-based; details: HepG2, 36 h
MCF7 [4] = assay: Antiproliferative activity against human MCF7 cells incubated for 36 hrs by CCK8 assay; assay type: functional, cell-based; details: MCF7, 36 h
MRC5 = assay: Antiproliferative activity against human MRC5 cells incubated for 36 hrs by CCK8 assay; assay type: cell-based; details: MRC5, 36 h
[5] = Selectivity index, ratio of IC50 for human MRC5 cells to IC50 for human A549 cells; assay type: toxicity; details: MRC5 cells versus A549 cells, read-out: Ratio IC50
[6] = Selectivity index, ratio of IC50 for human MRC5 cells to IC50 for human AGS cells; assay type: toxicity; details: MRC5 cells versus AGS cells, read-out: Ratio IC50
[7] = Selectivity index, ratio of IC50 for human MRC5 cells to IC50 for human HEPG2 cells
[8] = Selectivity index, ratio of IC50 for human MRC5 cells to IC50 for human MCF7 cells; assay type: toxicity; details: MRC5 cells versus MCF7 cells, read-out: Ratio IC50
[9] = Binding affinity to Tel-26nt G-rich DNA (unknown origin) assessed as change in melting temperature at 2 uM by UV-vis spectrophotometry (reference value: 38.33 +/- 0.07 degreeC)
[10] = Binding affinity to Tel-26nt G-rich DNA (unknown origin) assessed as change in melting temperature at 4 uM by UV-vis spectrophotometry (reference value: 38.33 +/- 0.07 degreeC)
[11] = Binding affinity to Tel-26nt G-rich DNA (unknown origin) assessed as change in melting temperature at 8 uM by UV-vis spectrophotometry (reference value: 38.33 +/- 0.07 degreeC)
[12] = Binding affinity to biotinylated Tel-26nt G-rich DNA (unknown origin) assessed as association rate constant by SPR analysis
[13] = Binding affinity to biotinylated Tel26nt double stranded DNA (unknown origin) assessed as association rate constant by SPR analysis
[14] = Binding affinity to biotinylated Tel-26nt G-rich DNA (unknown origin) assessed as dissociation rate constant by SPR analysis
[15] = Binding affinity to biotinylated Tel26nt double stranded DNA (unknown origin) assessed as dissociation rate constant by SPR analysis
[16] = Binding affinity to biotinylated Tel-26nt G-rich DNA (unknown origin) assessed as association equilibrium constant by SPR analysis
[17] = Binding affinity to biotinylated Tel26nt double stranded DNA (unknown origin) assessed as association equilibrium constant by SPR analysis
[18] = target: Telomerase reverse transcriptase (Homo sapiens) (UniProt O14746); assay: Inhibition of telomerase activity in human A549 cells at 2 to 8 uM by TRAP assay; assay type: cell-based
Sequence of Telomerase reverse transcriptase (Homo sapiens) (O14746 whole entry): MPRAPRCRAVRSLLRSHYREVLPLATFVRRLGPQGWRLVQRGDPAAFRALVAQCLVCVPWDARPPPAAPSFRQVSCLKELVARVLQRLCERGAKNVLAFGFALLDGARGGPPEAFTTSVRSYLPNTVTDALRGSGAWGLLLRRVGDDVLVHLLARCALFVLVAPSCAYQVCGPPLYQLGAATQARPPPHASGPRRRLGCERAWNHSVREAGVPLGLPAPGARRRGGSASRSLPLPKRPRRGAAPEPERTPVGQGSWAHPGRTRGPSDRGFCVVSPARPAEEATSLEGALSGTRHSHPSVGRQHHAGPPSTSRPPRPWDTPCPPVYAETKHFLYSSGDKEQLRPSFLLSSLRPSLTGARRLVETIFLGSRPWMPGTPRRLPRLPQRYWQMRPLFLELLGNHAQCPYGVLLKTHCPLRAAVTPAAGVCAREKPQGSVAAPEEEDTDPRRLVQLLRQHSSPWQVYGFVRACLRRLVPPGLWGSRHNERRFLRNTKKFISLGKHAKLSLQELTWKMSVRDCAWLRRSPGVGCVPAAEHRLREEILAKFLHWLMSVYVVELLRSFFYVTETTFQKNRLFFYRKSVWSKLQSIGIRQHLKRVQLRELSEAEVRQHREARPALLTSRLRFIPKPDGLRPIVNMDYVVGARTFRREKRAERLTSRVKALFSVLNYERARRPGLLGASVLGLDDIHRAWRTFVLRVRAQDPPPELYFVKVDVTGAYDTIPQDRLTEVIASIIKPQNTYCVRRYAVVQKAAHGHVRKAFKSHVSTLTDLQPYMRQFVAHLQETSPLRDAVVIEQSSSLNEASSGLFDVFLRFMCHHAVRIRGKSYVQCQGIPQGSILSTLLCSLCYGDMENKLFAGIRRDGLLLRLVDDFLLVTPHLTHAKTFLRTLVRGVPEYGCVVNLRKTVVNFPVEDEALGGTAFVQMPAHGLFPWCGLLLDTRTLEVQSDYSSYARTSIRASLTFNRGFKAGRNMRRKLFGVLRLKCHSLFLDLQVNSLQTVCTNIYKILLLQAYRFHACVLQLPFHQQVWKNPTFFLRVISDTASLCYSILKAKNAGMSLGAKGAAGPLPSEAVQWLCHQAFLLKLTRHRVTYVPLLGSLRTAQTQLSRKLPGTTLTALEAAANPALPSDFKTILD

[19] = target: Telomerase reverse transcriptase (Homo sapiens) (UniProt O14746); assay: Inhibition of telomerase activity in human A549 cells at 8 uM by TRAP assay relative to control; assay type: cell-based
A549 [20] = assay: Inhibition of cell migration in human A549 cells at 0.1 uM incubated for 48 hrs by wound healing assay relative to control; assay type: functional; details: A549, 48 h
A549 [21] = assay: Inhibition of cell migration in human A549 cells at 0.2 uM incubated for 48 hrs by wound healing assay relative to control; assay type: functional; details: A549, 48 h
A549 [22] = assay: Inhibition of cell migration in human A549 cells at 0.4 uM incubated for 48 hrs by wound healing assay relative to control; assay type: functional; details: A549, 48 h
AGS [23] = assay: Inhibition of cell migration in human AGS cells at 0.1 uM incubated for 48 hrs by wound healing assay relative to control; assay type: functional
AGS [24] = assay: Inhibition of cell migration in human AGS cells at 0.2 uM incubated for 48 hrs by wound healing assay relative to control; assay type: functional
AGS [25] = assay: Inhibition of cell migration in human AGS cells at 0.4 uM incubated for 48 hrs by wound healing assay relative to control; assay type: functional
HepG2 [26] = assay: Inhibition of cell migration in human HepG2 cells at 0.1 uM incubated for 48 hrs by wound healing assay relative to control; assay type: functional; details: HepG2, 48 h
HepG2 [27] = assay: Inhibition of cell migration in human HepG2 cells at 0.2 uM incubated for 48 hrs by wound healing assay relative to control; assay type: functional; details: HepG2, 48 h
HepG2 [28] = assay: Inhibition of cell migration in human HepG2 cells at 0.4 uM incubated for 48 hrs by wound healing assay relative to control; assay type: functional; details: HepG2, 48 h
MCF7 [29] = assay: Inhibition of cell migration in human MCF7 cells at 0.1 uM incubated for 48 hrs by wound healing assay relative to control; assay type: functional; details: MCF7, 48 h
MCF7 [30] = assay: Inhibition of cell migration in human MCF7 cells at 0.2 uM incubated for 48 hrs by wound healing assay relative to control; assay type: functional; details: MCF7, 48 h
MCF7 [31] = assay: Inhibition of cell migration in human MCF7 cells at 0.4 uM incubated for 48 hrs by wound healing assay relative to control; assay type: functional; details: MCF7, 48 h
[32] = Binding affinity to Tel-26nt C-rich DNA (unknown origin) at 24 uM incubated for 24 hrs by EMSA
[33] = Binding affinity to Tel-26nt G-rich DNA (unknown origin) at => 3 uM incubated for 24 hrs by EMSA
[34] = Binding affinity to Tel-26nt G-rich DNA (unknown origin) at 12 uM incubated for 24 hrs by EMSA
[35] = Binding affinity to Tel-26nt mutated-single-stranded DNA (unknown origin) at 24 uM incubated for 24 hrs by EMSA
[36] = Binding affinity to 26-nt telomeric G-rich RNA (unknown origin) at 24 uM incubated for 24 hrs by EMSA
[37] = Binding affinity to Tel26nt double stranded DNA (unknown origin) at 24 uM incubated for 24 hrs by EMSA
[38] = Binding affinity to Tel-26nt G-rich DNA (unknown origin) at 0.25 :1 to 6 : 1 ratio of test compound to DNA measured after each titration for 15 mins during 24 hrs incubation by circular dichroism analysis
[39] = Binding affinity to Tel-26nt G-rich DNA (unknown origin) at 4 to 16 uM measured after each titration for 15 mins during 24 hrs incubation by circular dichroism analysis
[40] = Binding affinity to Tel26nt double stranded DNA (unknown origin) at 4 to 16 uM measured after each titration for 15 mins during 24 hrs incubation by circular dichroism analysis
[41] = Binding affinity to Tel-26nt mutated-single-stranded DNA (unknown origin) at 4 to 16 uM measured after each titration for 15 mins during 24 hrs incubation by circular dichroism analysis
[42] = Binding affinity to Tel-26nt G-rich DNA (unknown origin) at 10 uM by UV-Vis spectrophotometric analysis
A549 [43] = assay: Antiproliferative activity against human A549 cells at 10 uM incubated for 36 hrs by CCK8 assay; assay type: functional, cell-based
AGS [44] = assay: Antiproliferative activity against human AGS cells at 10 uM incubated for 36 hrs by CCK8 assay; assay type: functional, cell-based
HepG2 [45] = assay: Antiproliferative activity against human HepG2 cells at 10 uM incubated for 36 hrs by CCK8 assay; assay type: functional, cell-based
MCF7 [46] = assay: Antiproliferative activity against human MCF7 cells at 10 uM incubated for 36 hrs by CCK8 assay; assay type: functional, cell-based
[47] = Binding affinity to Tel-26nt G-rich DNA (unknown origin) assessed as change in melting temperature by UV-vis spectrophotometry
[48] = Binding affinity to Tel-26nt G-rich DNA (unknown origin) assessed as change in melting temperature at 8 uM by UV-vis spectrophotometry
[49] = Binding affinity to biotinylated Tel-26nt G-rich DNA (unknown origin) at 1:1 ratio of test compound to DNA by SPR analysis
[50] = Binding affinity to biotinylated Tel26nt double stranded DNA (unknown origin) at 1:1 ratio of test compound to DNA by SPR analysis
[51] = Binding affinity to Tel-26nt G-rich DNA (unknown origin) incubated for 24 hrs by EMSA
[52] = Selectivity ratio of binding affinity to biotinylated Tel26nt double stranded DNA (unknown origin) to binding affinity to biotinylated Tel-26nt G-rich DNA (unknown origin)

- IC50 (A549 [1]): 1.13 µM
- IC50 (AGS [2]): 1.81 µM
- IC50 (HepG2 [3]): 3.48 µM
- IC50 (MCF7 [4]): 5.27 µM
- Tm [9]: 48.6 °C
- Tm [10]: 53.1 °C
- Tm [11]: 44.9 °C
- Ka [12]: 6.68 ×10⁶ /M/s
- Ka [13]: 1.13 ×10³ /M/s
- Kd [14]: 9.49 ×10⁻² /s
- Kd [15]: 2.58 ×10⁻² /s
- KA [16]: 7.04 ×10⁷ /M
- KA [17]: 4.38 ×10⁴ /M
- inhibition [18]: Active
- inhibition [19]: 61.7%
- Activity [32]: inactive
- Activity [33]: Active
- Activity [34]: Active
- Activity [35]: inactive
- Activity [36]: inactive
- Activity [37]: Active
- Activity [38]: Active
- Activity [39]: Active
- Activity [40]: inactive
- Activity [41]: inactive
- Activity [42]: Active
- deltaTm [47]: Dose-dependent effect
- ΔTm [48]: 24.3 °C
- Activity [49]: Active
- Activity [50]: inactive
- Activity [51]: Dose-dependent effect
- Selectivity ratio [52]: > 1000
SMILES: CN(C)CCCn1cc(C=C2c3cccnc3-c3ncccc32)c(-c2ccc(Br)cc2)n1
- IC50 (MRC5): 7.92 µM
- selectivity ratio [5]: 7.01
- selectivity ratio [6]: 4.25
- Ratio IC50 [7]: 2.21
- selectivity ratio [8]: 1.46
- inhibition at 0.1 µM (A549 [20]): 22.3%
- inhibition at 0.2 µM (A549 [21]): 61.7%
- inhibition at 0.4 µM (A549 [22]): 84.5%
- inhibition at 0.1 µM (AGS [23]): 52.2%
- inhibition at 0.2 µM (AGS [24]): 71.7%
- inhibition at 0.4 µM (AGS [25]): 89.8%
- inhibition at 0.1 µM (HepG2 [26]): 27.9%
- inhibition at 0.2 µM (HepG2 [27]): 49.3%
- inhibition at 0.4 µM (HepG2 [28]): 69.3%
- inhibition at 0.1 µM (MCF7 [29]): 31.9%
- inhibition at 0.2 µM (MCF7 [30]): 50.3%
- inhibition at 0.4 µM (MCF7 [31]): 67.3%
- growth inhibition (GI) (A549 [43]): Active
- growth inhibition (GI) (AGS [44]): Active
- growth inhibition (GI) (HepG2 [45]): Active
- growth inhibition (GI) (MCF7 [46]): Active
